Experimental data as given in patent publication US11771708B2, “Pharmaceutical carriers capable of pH dependent reconstitution and methods for making and using same” (Greenwood Brands, LLC, priority 2020, dated 2023).

Test: carrier reorganization in simulated gastric fluid and aspirin partitioning (Examples 2 and 3)
Format: physicochemical
Protocol: 5 grams of the composition is added to a beaker equipped with a magnetic stirrer and 50 mL of simulated gastric fluid is added with stirring. […] To this material, a 1 N solution of sodium hydroxide is added slowly to bring the pH up to about pH 7 with stirring. Raising the pH to pH 7 gives rise to a change in the carrier in a high pH environment. To this material, a 1 N solution of hydrochloride acid is added slowly until the pH is lowered to the pH of the simulated gastric fluid. It is expected that the carrier will reorganize. […] Thus, a carrier comprising a sufficient amount of a fatty acid in a triglyceride is capable of reorganization and absorption of a BAI from the low pH fluid, here simulated gastric fluid. 5 grams of the composition is added to a beaker equipped with a magnetic stirrer and 50 mL of simulated gastric fluid is added with stirring. […] To this material, a 1 N solution of sodium hydroxide is added slowly to bring the pH up to about pH 7 with stirring showing the change in the carrier in a high pH environment and the release of aspirin into the high pH environment. To this material, a 1 N solution of hydrochloride acid is added slowly until the pH is lowered to the pH of the simulated gastric fluid. […]

For `CC(=O)Oc1ccccc1C(=O)O` [aspirin], the “aspirin partitioning between reorganized carrier and simulated gastric fluid” value (Example 2: 10 g powdered aspirin added after oleic acid/soybean oil carrier was cycled low pH - pH 7 - low pH) was “partitions between the reorganized carrier and the simulated gastric fluid” and the “aspirin partitioning between reorganized carrier and simulated gastric fluid” value (Example 3: carrier (oleic acid/soybean oil) and aspirin 1:1, cycled low pH - pH 7 - low pH) was “partitions between the reorganized carrier and the simulated gastric fluid”.
